Values joined by “and” are separate entries in the source; they are usually repeats but may differ in a detail not shown here. Equal values may be shown once. Inconclusive results and toxic doses are left out.
System: P388 leukemia ip, CD2F1 mice, survival T/C
Assay: NCI In Vivo Anticancer Drug Screen. Data for tumor model P388 Leukemia (intraperitoneal) in CD2F1 (CDF1) mice
Details: endpoint: median survival time, higher = longer survival
Summary of the method: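 Mice carrying the transplanted tumor received test compound or vehicle. Survival was recorded in each group, and the value is the treated-group measurement divided by that of the vehicle-treated control group.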

[1] = dose: 25.0 mg/kg/injection, schedule: Q01DX009 (ip), vehicle: saline
[2] = dose: 50.0 mg/kg/injection, schedule: Q01DX009 (ip), vehicle: saline with Tween-80
[3] = dose: 50.0 mg/kg/injection, schedule: Q01DX009 (ip), vehicle: saline
[4] = dose: 100.0 mg/kg/injection, schedule: Q01DX009 (ip), vehicle: saline with Tween-80
[5] = dose: 100.0 mg/kg/injection, schedule: Q01DX009 (ip), vehicle: saline
[6] = dose: 200.0 mg/kg/injection, schedule: Q01DX009 (ip), vehicle: saline with Tween-80
[7] = dose: 50.0 mg/kg/injection, schedule: Q01DX005 (ip), vehicle: Klucel (hydroxypropylcellulose) (HPC)
[8] = dose: 100.0 mg/kg/injection, schedule: Q01DX005 (ip), vehicle: Klucel (hydroxypropylcellulose) (HPC)
[9] = dose: 200.0 mg/kg/injection, schedule: Q01DX005 (ip), vehicle: Klucel (hydroxypropylcellulose) (HPC)
[10] = dose: 60.0 mg/kg/injection, schedule: Q01DX005 (ip), vehicle: saline with Tween-80
[11] = dose: 120.0 mg/kg/injection, schedule: Q01DX005 (ip), vehicle: saline with Tween-80
[12] = dose: 240.0 mg/kg/injection, schedule: Q01DX005 (ip), vehicle: saline with Tween-80
[13] = dose: 50.0 mg/kg/injection, schedule: Q01DX005 (ip), vehicle: saline with Tween-80
[14] = dose: 100.0 mg/kg/injection, schedule: Q01DX005 (ip), vehicle: saline with Tween-80
[15] = dose: 200.0 mg/kg/injection, schedule: Q01DX005 (ip), vehicle: saline with Tween-80
[16] = dose: 60.0 mg/kg/injection, schedule: Q01DX005 (ip), vehicle: Klucel (hydroxypropylcellulose) (HPC)
[17] = dose: 120.0 mg/kg/injection, schedule: Q01DX005 (ip), vehicle: Klucel (hydroxypropylcellulose) (HPC)
[18] = dose: 240.0 mg/kg/injection, schedule: Q01DX005 (ip), vehicle: Klucel (hydroxypropylcellulose) (HPC)
[19] = dose: 50.0 mg/kg/injection, schedule: Q01DX009 (ip), vehicle: Klucel (hydroxypropylcellulose) (HPC)
[20] = dose: 100.0 mg/kg/injection, schedule: Q01DX009 (ip), vehicle: Klucel (hydroxypropylcellulose) (HPC)
[21] = dose: 200.0 mg/kg/injection, schedule: Q01DX009 (ip), vehicle: Klucel (hydroxypropylcellulose) (HPC)
[22] = dose: 60.0 mg/kg/injection, schedule: Q01DX005 (ip), vehicle: saline
[23] = dose: 120.0 mg/kg/injection, schedule: Q01DX005 (ip), vehicle: saline
[24] = dose: 240.0 mg/kg/injection, schedule: Q01DX005 (ip), vehicle: saline

## COC(=O)C(Br)C(Br)c1ccccc1 (stereo not drawn)
[1]
  T/C: 104 % of control and 111 % of control
[2]
  T/C: 110 % of control
[3]
  T/C: 119 % of control
[4]
  T/C: 91 % of control
[5]
  T/C: 120 % of control
dose: 132.0 mg/kg/injection, schedule: Q01DX009 (ip), vehicle: saline with Tween-80
  T/C: 113 % of control
[6]
  T/C: 107 % of control and 113 % of control
dose: 200.0 mg/kg/injection, schedule: Q01DX009 (ip), vehicle: saline
  T/C: 122 % of control
dose: 300.0 mg/kg/injection, schedule: Q01DX009 (ip), vehicle: saline with Tween-80
  T/C: 95 % of control

## C1CCC2[N-]CCCC2C1.C1CCC2[N-]CCCC2C1.O=[N+]([O-])O.O=[N+]([O-])O.[Cu+2] (stereo not drawn)
dose: 7.5 mg/kg/injection, schedule: Q01DX005 (ip), vehicle: saline with Tween-80
  T/C: 99 % of control
dose: 15.0 mg/kg/injection, schedule: Q01DX005 (ip), vehicle: saline with Tween-80
  T/C: 99 % of control

## Cc1ccc(NCn2c(=S)sc3ccccc32)cc1
[7]
  T/C: 89 % of control
[8]
  T/C: 88 % of control
[9]
  T/C: 98 % of control

## O=C1CN(C2CC2N2CC(=O)OC(=O)C2)CC(=O)O1 (stereo not drawn)
dose: 100.0 mg/kg/injection, schedule: Q04DX003 (ip), vehicle: saline with Tween-80
  T/C: 97 % of control
dose: 400.0 mg/kg/injection, schedule: Q04DX003 (ip), vehicle: saline with Tween-80
  T/C: 89 % of control

## S=C(c1c(Cl)cccc1Cl)N1CN(Cc2ccc(Cl)cc2)CN(Cc2ccc(Cl)cc2)C1
[2]
  T/C: 99 % of control
[4]
  T/C: 96 % of control
[6]
  T/C: 108 % of control

## COC(=O)C1C2COc3ccccc3C2=NC1c1ccc([N+](=O)[O-])cc1 (stereo not drawn)
dose: 25.0 mg/kg/injection, schedule: Q01DX001 (ip), vehicle: Klucel (hydroxypropylcellulose) (HPC)
  T/C: 91 % of control
dose: 50.0 mg/kg/injection, schedule: Q01DX001 (ip), vehicle: Klucel (hydroxypropylcellulose) (HPC)
  T/C: 96 % of control
dose: 100.0 mg/kg/injection, schedule: Q01DX001 (ip), vehicle: Klucel (hydroxypropylcellulose) (HPC)
  T/C: 95 % of control

## [O-][n+]1cnn2ccccc21
[10]
  T/C: 100 % of control
[11]
  T/C: 106 % of control
[12]
  T/C: 102 % of control

## N#CC1=C(N)OC(/C=C/c2ccccc2)=C(C#N)C1c1ccccc1 (stereo not drawn)
[13]
  T/C: 97 % of control
[14]
  T/C: 98 % of control
[15]
  T/C: 89 % of control

## COc1cccc2c1C(=O)c1c(O)c3c(c(O)c1C2=O)C[C@@](O)(c1csc(-c2ccccc2)n1)C[C@@H]3OC1CC(N)C(O)C(C)O1 (stereo partly drawn)
dose: 1.56 mg/kg/injection, schedule: Q01DX009 (ip), vehicle: water
  T/C: 174 % of control
dose: 3.13 mg/kg/injection, schedule: Q01DX009 (ip), vehicle: water
  T/C: 165 % of control
dose: 6.25 mg/kg/injection, schedule: Q01DX009 (ip), vehicle: water
  T/C: 182 % of control

## N#Cc1c[nH]n2ccnc12
[16]
  T/C: 101 % of control
[17]
  T/C: 101 % of control
[18]
  T/C: 105 % of control

## O=c1nc2n(c3nccnc13)CCS2
dose: 12.5 mg/kg/injection, schedule: Q01DX009 (ip), vehicle: saline
  T/C: 111 % of control
[1]
  T/C: 104 % of control
[3]
  T/C: 100 % of control

## NC(Cc1ccc(O)cc1)C(=O)N/N=C/c1cccc2ccccc12 (stereo not drawn)
[13]
  T/C: 92 % of control
[14]
  T/C: 90 % of control
[15]
  T/C: 89 % of control

## O=C1CC(=O)C(C(=O)c2ccccc2)N1 (stereo not drawn)
[13]
  T/C: 96 % of control
[14]
  T/C: 97 % of control
[15]
  T/C: 94 % of control

## Cn1c(=O)c2c(=O)n3ccccc3nc2n(C)c1=O
[7]
  T/C: 104 % of control
[8]
  T/C: 96 % of control

## Cc1nc2nc[nH]n2c1N=Nc1ccccc1
[16]
  T/C: 98 % of control
[17]
  T/C: 95 % of control
[18]
  T/C: 107 % of control

## Nc1cc(S(N)(=O)=O)ccc1SSc1ccc(S(N)(=O)=O)cc1N
[19]
  T/C: 94 % of control
[2]
  T/C: 105 % of control
[20]
  T/C: 112 % of control
[4]
  T/C: 109 % of control
[21]
  T/C: 112 % of control
[6]
  T/C: 110 % of control
dose: 400.0 mg/kg/injection, schedule: Q01DX009 (ip), vehicle: Klucel (hydroxypropylcellulose) (HPC)
  T/C: 121 % of control
dose: 400.0 mg/kg/injection, schedule: Q01DX009 (ip), vehicle: saline with Tween-80
  T/C: 117 % of control

## O=C(Cl)C=Cc1ccc([N+](=O)[O-])cc1 (mixture of isomers)
[3]
  T/C: 104 % of control
[5]
  T/C: 94 % of control

## O=C(C/C(=N\C(=S)Nc1cc(C(F)(F)F)ccc1Cl)NO)N1CCCC1
dose: 25.0 mg/kg/injection, schedule: Q01DX009 (ip), vehicle: saline with Tween-80
  T/C: 101 % of control and 116 % of control
[2]
  T/C: 105 % of control and 112 % of control
[4]
  T/C: 117 % of control
[6]
  T/C: 117 % of control

## Cn1c(CCCC(=O)O)nc2cc(N(CCCl)CCCl)ccc21
dose: 5.0 mg/kg/injection, schedule: Q01DX009 (ip), vehicle: saline sonified
  T/C: 154 % of control
dose: 9.9 mg/kg/injection, schedule: Q04DX003 (ip), vehicle: saline with Tween-80
  T/C: 150 % of control
dose: 10.0 mg/kg/injection, schedule: Q01DX009 (ip), vehicle: saline sonified
  T/C: 168 % of control
dose: 22.5 mg/kg/injection, schedule: Q04DX003 (ip), vehicle: saline with Tween-80
  T/C: 163 % of control

## O=C(Nc1ccccc1Cl)Oc1ccc(Cl)cc1Cl
[19]
  T/C: 101 % of control
[20]
  T/C: 110 % of control
[21]
  T/C: 106 % of control

## O=C1/C(=C/c2cccc(F)c2)SC(=S)N1C1CC1
dose: 6.25 mg/kg/injection, schedule: Q01DX005 (ip), vehicle: Klucel (hydroxypropylcellulose) (HPC)
  T/C: 96 % of control
dose: 12.5 mg/kg/injection, schedule: Q01DX005 (ip), vehicle: Klucel (hydroxypropylcellulose) (HPC)
  T/C: 96 % of control
dose: 25.0 mg/kg/injection, schedule: Q01DX005 (ip), vehicle: Klucel (hydroxypropylcellulose) (HPC)
  T/C: 99 % of control
[7]
  T/C: 94 % of control
[8]
  T/C: 92 % of control
[9]
  T/C: 87 % of control

## CN(C)CCO
[22]
  T/C: 104 % of control
[23]
  T/C: 100 % of control
[24]
  T/C: 118 % of control

## NC(N)=N/N=C/C(O)C(O)C(O)C(O)CO (stereo not drawn)
[22]
  T/C: 100 % of control
[23]
  T/C: 100 % of control
[24]
  T/C: 106 % of control

## CC(C)(C)N=C(CCNC1CCCCC1)Nc1ccccc1Cl
[2]
  T/C: 100 % of control
[4]
  T/C: 109 % of control
[6]
  T/C: 101 % of control

## O=c1cc(CCc2ccccc2)c2ccccc2[nH]1
dose: 100.0 mg/kg/injection, schedule: Q04DX002 (ip), vehicle: saline with Tween-80
  T/C: 94 % of control
dose: 200.0 mg/kg/injection, schedule: Q04DX002 (ip), vehicle: saline with Tween-80
  T/C: 94 % of control
dose: 400.0 mg/kg/injection, schedule: Q04DX002 (ip), vehicle: saline with Tween-80
  T/C: 95 % of control

## CCOC(=O)c1ccc(-n2c(C)nc3ccc(Br)cc3c2=O)cc1
[10]
  T/C: 98 % of control
[11]
  T/C: 95 % of control
[12]
  T/C: 100 % of control

## O=c1oc(-c2ccccc2)cc(N(c2ccccc2)c2ccccc2)c1Cl
[2]
  T/C: 93 % of control
[4]
  T/C: 93 % of control
[6]
  T/C: 95 % of control

— PubChem BioAssay AID330 (DTP/NCI, 2004)
